The OPERA property sets (Mansouri et al. 2018)

Settings: for log10 BCF / log10 biotransformation half-life (days): fish

| SMILES | boiling point [°C] | melting point [°C] | further results |
| --- | --- | --- | --- |
| O/N=C\c1ccccc1 | 200 | 36.5 | – |
| OCc1ccc2c(c1)OCO2 | – | 58 | – |
| O=[N+]([O-])c1ccc2c(c1)NCC2 | – | 68 | – |
| CC(C)(C(=O)O)C(C)(C)C(=O)O | – | 200 | – |
| CC[C@H]1C[N@@]2CC[C@H]1C[C@@H]2[C@@H](O)c1ccnc2ccccc12 | – | 268 | – |
| C=CCc1ccc(OC=O)c(OC)c1 | 270 | – | – |
| Cc1cc(C(C)C)ccc1O | 230 | 8.6 | – |
| CC(C)O | 82.3 | -89.5 | log10 Henry constant (atm·m³/mol): -5.09; log10 vapour pressure (mmHg): 1.66; ready biodegradability: readily biodegradable |
| OCCN1CC1 | 168 | – | – |
| CCc1ccsc1 | 136 | -89.1 | – |
| NC12CC3CC(CC(C3)C1)C2 | – | 180 | – |
| C=CC(Cl)(Cl)Cl | 114 | -30 | – |
| COc1ccc([N+](=O)[O-])cc1 | 274 | 54 | ready biodegradability: not readily biodegradable; log10 BCF: 1.08; log10 biotransformation half-life (days): -0.95 |
| O=C1CCCCO1 | 219 | -12.5 | – |
| OCCN1CCN(CCO)CC1 | – | 135 | – |
| C=CC(=O)Cl | 75.5 | – | – |
| O=[N+]([O-])c1ccc(O)c2ncccc12 | – | 180 | – |
| C=CC#CC | 59.5 | – | – |
| CC1CCCC(=O)C1 (stereo not drawn) | 170 | – | log10 vapour pressure (mmHg): 0.176 |
| CC(C)=CC=C(C)C | 134 | 14 | log10 BCF: 2.32; log10 biotransformation half-life (days): 0.49 |
| Clc1ccnc2ccccc12 | 262 | 34.5 | – |
| Cc1cc(O)ccc1N=Nc1ccccc1 | – | 109 | – |
| Cc1cc(C)c(N(C)C)c(C)c1 | 214 | – | – |
| Oc1ccc2ccccc2c1-c1c(O)ccc2ccccc12 | – | 216 | – |
| CCOC(=O)CCCOc1ccc(Cl)cc1C | – | -1 | log10 vapour pressure (mmHg): -5.84 |
| CC(C)NCC(O)c1ccc([N+](=O)[O-])cc1 (stereo not drawn) | – | 98 | – |

| SMILES | boiling point [°C] | melting point [°C] | further results |
| --- | --- | --- | --- |
| CC1=C(O)C(=O)C(C)O1 (stereo not drawn) | – | 80.5 | – |
| Clc1cc2c(cc1Cl)Oc1c(Cl)c(Cl)c(Cl)c(Cl)c1O2 | – | 273 | log10 vapour pressure (mmHg): -10.4; log10 BCF: 4; log10 biotransformation half-life (days): 1.27 |
| CCCCCCCCCCCCCCCCCCCCC | 356 | 40.5 | log10 biodegradation half-life (days): 1.4; log10 vapour pressure (mmHg): -4.06; ready biodegradability: readily biodegradable |
| CC(C)(C)C(=O)OCOc1ccccc1C(N)=O | – | 95 | – |
| CNC(=O)Oc1cc(C)cc(C(C)C)c1 | – | 87 | log10 Koc (L/kg): 2.48; log10 vapour pressure (mmHg): -4.52 |
| CC(=O)CCC(C)C | 144 | -74 | log10 vapour pressure (mmHg): 0.761 |
| ClCC(CCl)(CCl)CCl | – | 97 | – |
| C=CC1(C)OC(=O)N(c2cc(Cl)cc(Cl)c2)C1=O (stereo not drawn) | – | 108 | log10 Koc (L/kg): 2.7; log10 vapour pressure (mmHg): -6.92 |
| Cc1ccc2c(c1C)CCCC2 | 252 | – | – |
| CCC(C)(C)CC(C)C | 131 | -113 | log10 vapour pressure (mmHg): 1.13 |
| CCCCCCCCCCCCCCCCC | 302 | 22 | log10 biodegradation half-life (days): 1.3; log10 vapour pressure (mmHg): -3.64; ready biodegradability: readily biodegradable |
| Nc1ccc2c3c(cccc13)-c1ccccc1-2 | – | 116 | – |
| Nc1nc2c(ncn2COCCO)c(=O)[nH]1 | – | 255 | – |
| CCCCCCC(C)(C)O | 178 | – | – |
| NC[C@H]1O[C@H](O[C@H]2[C@H](O[C@@H]3O[C@H](CO)[C@@H](O)[C@H]3O)C(O)[C@H](N)C[C@@H]2N)[C@H](N)[C@@H](O)[C@@H]1O (stereo partly drawn) | – | 194 | – |
| CC(=O)OOC(=O)c1ccccc1 | – | 37 | – |
| CCCCCCCCCCCCCCCCOC(=O)CCCCCCCCCCCCCCC | – | 54 | – |
| CC(C)CCC(C)C | 109 | -91 | log10 biodegradation half-life (days): 1.4; log10 vapour pressure (mmHg): 1.48 |
| ClC1=C(Cl)C2(Cl)C3C(Cl)C(Cl)C(Cl)C3C1(Cl)C2(Cl)Cl (stereo not drawn) | – | – | log10 Koa: 9.43; log10 vapour pressure (mmHg): -6.02 |
| CC(=O)c1ccccc1Cl | – | – | ready biodegradability: not readily biodegradable |
| CCC(C)c1ccc(N)cc1 (stereo not drawn) | 238 | – | – |
| Nc1ccc(C=O)cc1 | – | 71.5 | – |
| CCOC(=O)C(CC)C(=O)OCC | 208 | – | – |
| O=C(O)c1ccc(F)c(F)c1F | – | 141 | – |
| CC1(C)O[C@@H]2C[C@H]3[C@@H]4CCC5=CC(=O)C=C[C@]5(C)[C@@]4(F)[C@@H](O)C[C@]3(C)[C@]2(C(=O)CO)O1 | – | 293 | – |
| CC1=CCCCC1 | 106 | – | log10 vapour pressure (mmHg): 1.49 |

| SMILES | boiling point [°C] | melting point [°C] | further results |
| --- | --- | --- | --- |
| NCCCCCCCCCCN | – | 62.5 | – |
| OCC(F)(F)C(F)(F)F | 82 | – | log10 Henry constant (atm·m³/mol): -4.65; log10 vapour pressure (mmHg): 1.66 |
| c1ccc2ncccc2c1 | 237 | -14.8 | log10 Koc (L/kg): 3.1; log10 vapour pressure (mmHg): -1.22; ready biodegradability: readily biodegradable; log10 BCF: 0.58; log10 biotransformation half-life (days): -1.33 |
| CCCCCCCCOC(=O)CCCCC(=O)OCCCCCCCC | – | -70 | log10 Henry constant (atm·m³/mol): -6.36; log10 vapour pressure (mmHg): -6.07 |
| CCOC(=O)CCCCCCCCC(=O)OCC | 305 | 5 | log10 vapour pressure (mmHg): -3.29 |
| O[C@H]1[C@H]2c3cc4c(cc3CN3CCC(=C[C@@H]1O)[C@H]23)OCO4 | – | 280 | – |
| Nc1ccc2nccnc2c1 | – | 159 | – |
| COc1cc2c(cc1O)[C@H](Cc1ccc(O)cc1)NCC2 | – | 220 | – |
| Cc1ccc(Cl)cc1C | 194 | -6 | – |
| C/C=C\CC(C)(C)C | 107 | – | – |
| CCC(C)CO (stereo not drawn) | 128 | – | log10 Henry constant (atm·m³/mol): -4.85; log10 vapour pressure (mmHg): 0.494 |
| NC(=O)CCl | 225 | 121 | – |
| Nc1ccccc1I | – | 56.5 | – |
| CCCCCCCCCCCCCCC(=O)O | 339 | 52.3 | log10 vapour pressure (mmHg): -6.36 |
| CC(C)CCCCC(C)C | 160 | -54.9 | – |
| C=COCCCCCCCCCC | – | -41 | – |
| CCCCOC(=O)C(Cl)(Cl)Cl | 204 | – | – |
| Clc1cc(Cl)c(Cl)c(-c2c(Cl)c(Cl)c(Cl)c(Cl)c2Cl)c1 | – | – | log10 Henry constant (atm·m³/mol): -4.85 |
| C[Si](C)(C)O[Si](C)(C)C | 99 | -66 | log10 vapour pressure (mmHg): 1.62 |
| N#Cc1sc2c(=O)c3ccccc3c(=O)c=2sc1C#N | – | 225 | log10 vapour pressure (mmHg): -10.7; ready biodegradability: not readily biodegradable |
| O=C[C@H](O)C(O)[C@H](O)CO (stereo in doubt) | – | – | log10 vapour pressure (mmHg): -9.71 |
| N=C(N)NC(=O)c1nc(Cl)c(N)nc1N | – | 241 | – |
| Cc1ncsc1C | 158 | 83.5 | – |
| C=CC(=O)OCCOCC | 174 | -47 | – |
| c1ccc2cc(Nc3ccc(Nc4ccc5ccccc5c4)cc3)ccc2c1 | – | 235 | – |
| C=CC=CCC | 73.5 | – | log10 vapour pressure (mmHg): 2.11 |

| SMILES | boiling point [°C] | melting point [°C] | further results |
| --- | --- | --- | --- |
| CCCCCCCCCBr | – | – | log10 vapour pressure (mmHg): -0.921 |
| NCc1ccccc1 | 185 | – | log10 vapour pressure (mmHg): -0.185; ready biodegradability: readily biodegradable |
| Cc1ccc2c(Cl)cc(Cl)c(O)c2n1 | – | 114 | – |
| CCc1cnc2ccccc2c1 | 266 | – | – |
| O=C(NC(=O)c1c(F)cccc1F)Nc1cc(Cl)c(OC(F)(F)C(F)F)c(Cl)c1 | – | 204 | – |
| CCOC(=O)CBr | 168 | – | – |
| O=C(O)COc1nc(Cl)c(Cl)cc1Cl | – | 149 | log10 Koc (L/kg): 1.67; log10 vapour pressure (mmHg): -5.9 |
| COC(=O)C1(S(=O)(=O)c2ccccc2)CCCC1 | – | 56.5 | – |
| O=C1C(O)=C(Cl)C(=O)c2ccccc21 | – | 216 | – |
| c1ccc(-c2nnc(-c3ccccn3)nc2-c2ccccc2)cc1 | – | 192 | – |
| O=C(O)COc1ccc(C(=O)c2cccs2)c(Cl)c1Cl | – | 149 | – |
| O=CC12CC=CCC1C1CC=CCC1O2 (stereo not drawn) | 307 | -80 | – |
| CCCCCCCCCCCCCCCCCCCCCCCCCCCCCCCCCCC | 490 | 75 | log10 vapour pressure (mmHg): -11.3; ready biodegradability: readily biodegradable |
| NC(c1ccccc1)c1ccccc1 | 304 | 34 | – |
| CC1CCC(=O)CC1 | 170 | -40.6 | log10 vapour pressure (mmHg): 0.176 |
| N#Cc1ccccc1C#N | – | 140 | ready biodegradability: not readily biodegradable; log10 BCF: 0.7; log10 biotransformation half-life (days): -0.67 |
| C=CCC1(C(C)CCC)C(=O)NC(=O)NC1=O (stereo not drawn) | – | 100 | – |
| Cc1nc2ccccc2nc1C | – | 105 | – |
| O[C@@H]1CCCC[C@H]1O | – | 102 | – |
| CC(C)CCC(CO)C(C)C (stereo not drawn) | 211 | – | – |
| CN(C)c1ccc(N)cc1 | 263 | 53 | – |
| O=C1C=Cc2cccc3cccc1c23 | – | 154 | log10 vapour pressure (mmHg): -5.17 |
| O=C(O)CS(=O)(=O)CC(=O)O | – | 182 | – |
| Nc1c(Cl)cccc1C(=O)O | – | 190 | – |
| c1ccc(Cc2c3ccccc3c(Cc3ccccc3)c3ccccc23)cc1 | – | 246 | – |
| C=C[C@H]1C[N@@]2CC[C@H]1C[C@H]2[C@H](O)c1ccnc2ccc(OC)cc12.Cl | – | 159 | – |

| SMILES | boiling point [°C] | melting point [°C] | further results |
| --- | --- | --- | --- |
| CCCC(=O)Nc1ccc(O)cc1 | – | 140 | – |
| CC(Cl)CC(C)Cl (stereo not drawn) | 145 | – | – |
| O=c1c(O)c(-c2ccc(O)cc2)oc2cc(O)cc(O)c12 | – | 277 | – |
| ClC1(Cl)C2(Cl)C3(Cl)C4(Cl)C(Cl)(Cl)C5(Cl)C3(Cl)C1(Cl)C5(Cl)C24Cl (stereo not drawn) | – | – | log10 Henry constant (atm·m³/mol): -3.09; log10 Koc (L/kg): 6; log10 vapour pressure (mmHg): -6.1; log10 BCF: 4.31; log10 biotransformation half-life (days): 1.8 |
| COc1ccccc1N1CCNCC1 | – | 38.5 | – |
| O=S(=O)(O)C(F)(F)F | 166 | – | log10 vapour pressure (mmHg): -1 |
| CCCC(=O)Oc1ccccc1 | 225 | – | – |
| CN(C)C(=S)N(C)C | 245 | 79.3 | – |
| CCN1C(=O)OC(C)(C)C1=O | – | 76.5 | – |
| Oc1cccc(Nc2ccccc2)c1 | 340 | 81.5 | – |
| CCCc1cc(=O)[nH]c(=S)[nH]1 | – | 219 | ready biodegradability: not readily biodegradable |
| O=[N+]([O-])c1ccccc1C(F)(F)F | 217 | 32.5 | – |
| CCCCCCCCC=CCCCCCCCC(=O)Nc1ccccc1 | – | 41 | – |
| Clc1ccc(Oc2ccc(Cl)c(Cl)c2)cc1Cl | – | – | log10 BCF: 4.51 |
| COc1ccc(CN)cc1 | 236 | – | – |
| COc1ccc(-c2ccc(OC)cc2)cc1 | – | 175 | – |
| Fc1cc2c(cc1F)Oc1cc(Br)c(Br)cc1O2 | – | 210 | log10 vapour pressure (mmHg): -7.74 |
| CC(C)(C)c1cc(C=O)cc(C(C)(C)C)c1O | – | 186 | – |
| CCCCOCc1ccccc1 | 223 | – | – |
| C1CSC1 | 95 | -73.2 | log10 vapour pressure (mmHg): 1.72 |
| Ic1cc(I)c(I)c(I)c1I | – | 172 | – |
| CC(Cl)CBr (stereo not drawn) | 118 | – | – |
